{"source": "paper PMC11362529", "about": "“Exploring the neuroprotective potential of Nrf2-pathway activators against annonacin toxicity” (Scientific Reports, 2024)", "type_in_all_cases": "cell-based, human", "key": {"[1]": {"test_system": "LUHMES cells", "assay": "Protective effects against annonacin toxicity, calcein viability assay", "details": "with 20 nM annonacin, glucose-reduced medium, 48 h; 40 μM Ki 696–2, 1 μM HPP-D, 15 μM ezetimibe, 4 μM licochalcone A; most protective or highest non-toxic concentration for the others", "description": "The calcein AM green dye (Thermo Fisher Scientific) was diluted in DMSO to obtain a 1 mM stock solution. The stock solution was further diluted in HBSS (Hanks' balanced salt solution), immediately before incubation, to achieve a final working concentration of 1 μM in the well. The medium was removed, the cells were washed once with warm HBSS, and 200 µl of calcein working solution was added to each well. For background correction, 200 µl of calcein working solution was added to a well without cells (background control). After 30 min of incubation at 37 °C, the calcein solution was removed and the cells were washed once with HBSS. Cells were lysed in a 200 µl volume of 1% Triton™ X-100 in PBS (phosphate buffered saline) and the lysate transferred to a 96‐well black plate for the readout. The fluorescence signal was measured on a FLUOstar® Omega plate reader (BMG LabTech, Ortenberg, Germany) at λ Ex/Em = 485/530 nm and data was analyzed with the MARS data analysis software (BMG LabTech). For background correction, we subtracted the background control signal from the measured values of all experimental conditions. Data were expressed as percentage of viability relative to the control (DMSO-treated) condition.\nFor pharmacological treatments, we acquired several previously described Nrf2-pathway activators: ezetimibe (Cayman), licochalcone A (MedChem Express, New Jersey, NJ, USA), bardoxolone methyl, saracatinib and PP2 (AbMole BioScience Inc., Houston, TX, USA). The enantiomers Ki 696–1 and Ki 696–2, and the compound HPP-D were kindly provided by Orion Pharma (Espoo, Finland). All compounds were dissolved in DMSO and stored in small aliquots at -80 °C to avoid freeze–thaw cycles. Compound general toxicity was determined on PLO/FN double-coated 48-well microplates as follows: after 4 days of differentiation, LUHMES cells were incubated with the different Nrf2-pathway activators at concentrations ranging from 1 nM to 100 µM, for 96 h. The cell viability was assessed by calcein assay on day 8 of differentiation. Non-toxic concentrations of the Nrf2-pathway activators were selected and used in the pharmacological treatments, in combination with 20 nM of annonacin, in glucose-reduced differentiation medium, over a period of 48 h, similar to an in vitro model reported before. The protective effects of Nrf2-pathway activators against annonacin toxicity were determined in terms of cell viability with the calcein assay."}, "[2]": {"test_system": "LUHMES cells", "assay": "Mitochondrial superoxide (MitoSOX / calcein AM)", "details": "100 µM H2O2, 2 h, positive control", "description": "As before, cells seeded on PLO/FN-coated 24-well microplates were treated for 48 h with 20 nM of annonacin and the selected concentrations of Nrf2-pathway activators, in glucose-reduced medium. After this period, the medium was removed, and the cells were washed once with warm HBSS before being simultaneously incubated with 0.5 µM of MitoSOX™ red (Thermo Fisher Scientific) and 1 µM of calcein AM for 30 min at 37 °C. Next, the cells were again washed with HBSS and fresh HBSS was added to maintain cell viability during live-image acquisition on a fluorescence microscope Leica-DFC9000GTC (Leica). The cells were kept under controlled environmental conditions, and similar image acquisition parameters were used for all images, as explained before. We acquired ten to fifteen images per condition, from different view fields across triplicates, with a 200 × magnification (20 × objective, 10 × intermediate magnification). Quantification of MitoSOX and calcein AM FI was performed using the ImageJ software. Briefly, TIFF exported images were submitted to background subtraction using the rolling ball method with a radius of 50 pixels. Channel-specific thresholds were applied to all images to define the ROI, and the FI were measured as integrated density and reported as arbitrary units (a. u.). The MitoSOX FI was normalized to cell viability estimated by calcein AM FI, to obtain a MitoSOX FI/calcein FI ratio. The average ratio of the different view fields per experimental condition was taken and reported as fold change relative to the control (DMSO-treated) condition."}, "[3]": {"test_system": "LUHMES cells", "assay": "Mitochondrial membrane potential (JC-1 probe)", "details": "CCCP 50 µM, positive control", "description": "In PLO/FN-coated 24-well microplates, cells were simultaneously incubated with 20 nM of annonacin and the selected concentrations of Nrf2-pathway activators, in glucose-reduced medium, over the course of 24 h. After that, the medium was removed and cells were washed once with warm HBSS, followed by incubation with 5 µM JC-1 solution in HBSS, for 20 min at 37 °C. For the positive control, the mitochondrial oxidative phosphorylation uncoupler, CCCP, was used at a concentration of 50 µM. After the incubation period, cells were washed with HBSS, and fresh HBSS was added to keep the cells viable during live-image acquisition. Image acquisition was done on a fluorescence microscope Leica-DFC9000GTC (Leica, Frankfurt, Germany). Environmental conditions were kept steady at 37 °C with a 5% CO2 atmosphere during the entire acquisition time. Ten to fifteen images from different fields of view, dispersed across triplicates, were acquired with 200 × magnification (20 × objective, 10 × intermediate magnification), using the same image acquisition parameters for all conditions. The fluorescence of JC-1 monomers was captured on the green channel (λ Ex/Em = 475/519 nm) and the fluorescence of JC-1 aggregates was capture on the red channel (λ Ex/Em = 555/594 nm). Quantification of FI (fluorescence intensities) of JC-1 monomeric and aggregated forms was done using the ImageJ software (http://rsb.info.nih.gov/ij/, ImageJ bundled with 64-bit Java 8). Briefly, TIFF exported images were submitted to background subtraction using the rolling ball method with a radius of 50 pixels. Channel-specific thresholds were applied to all images to define the ROI (region of interest) and FI were measured as integrated density. Data were reported as the ratio between JC-1 aggregates and monomers, obtained by dividing the FI of the JC-1 aggregated form by the FI of the monomeric form."}, "[4]": {"test_system": "LUHMES cells", "assay": "Compound general toxicity, calcein viability assay", "details": "1 nM to 100 μM, 96 h, differentiation medium, calcein fluorescence", "description": "We used LUHMES (lund human mesencephalic) cells derived from human embryonic ventral mesencephalic cells by conditional immortalization (Tet-off v-myc overexpression). Cells were grown in monolayer at 37 °C in a humidified atmosphere of 5% CO2, in 75 cm^2 tissue culture flasks coated with 0.05 µg/ml PLO (poly-L-ornithine). Cells were maintained in growth medium of DMEM/F12 (Sigma-Aldrich, St. Louis, MO, USA), supplemented with 1% N-2 supplement (Gibco, Thermo Fisher Scientific, Waltham, MA, USA) and 0.04 µg/ml basic fibroblast growth factor (PreproTech EC, Waltham, MA, USA), and routinely dissociated with trypsin–EDTA solution and subcultured when reaching 70% confluence to avoid overgrowth. […]\nThe calcein AM green dye (Thermo Fisher Scientific) was diluted in DMSO to obtain a 1 mM stock solution. […] Cells were lysed in a 200 µl volume of 1% Triton™ X-100 in PBS (phosphate buffered saline) and the lysate transferred to a 96‐well black plate for the readout. The fluorescence signal was measured on a FLUOstar® Omega plate reader (BMG LabTech, Ortenberg, Germany) at λ Ex/Em = 485/530 nm and data was analyzed with the MARS data analysis software (BMG LabTech). For background correction, we subtracted the background control signal from the measured values of all experimental conditions. Data were expressed as percentage of viability relative to the control (DMSO-treated) condition. […]"}}}
{"smiles": "CC(C)(C)n1nc(-c2ccc(Cl)cc2)c2c(N)ncnc21", "note": "[PP2]", "values": [{"measurement": "reduction of annonacin toxicity", "setting": "[1]", "result": "no statistical differences"}]}
{"smiles": "OO", "note": "[H2O2]", "values": [{"measurement": "MitoSOX fluorescence intensity", "setting": "[2]", "result": "increased the MitoSOX fluorescence intensity"}]}
{"smiles": "CN1CCN(CCOc2cc(OC3CCOCC3)c3c(Nc4c(Cl)ccc5c4OCO5)ncnc3c2)CC1", "note": "[saracatinib]", "values": [{"measurement": "reduction of annonacin toxicity", "setting": "[1]", "result": "no statistical differences"}]}
{"smiles": "N#CC(C#N)=NNc1cccc(Cl)c1", "note": "[CCCP]", "values": [{"measurement": "mitochondrial membrane potential (JC-1 aggregates)", "setting": "[3]", "result": "drastically reduced the presence of JC-1 aggregates"}]}
{"smiles": "COC(=O)[C@]12CCC(C)(C)C[C@H]1[C@H]1C(=O)C=C3[C@@]4(C)C=C(C#N)C(=O)C(C)(C)[C@@H]4CC[C@@]3(C)[C@]1(C)CC2", "note": "[bardoxolone, bardoxolone methyl]", "values": [{"measurement": "impact on viability of differentiated LUHMES neuronal cells (compound toxicity)", "setting": "[4]", "result": "extremely neurotoxic at concentrations above the nanomolar range"}]}
